From US9540385B2, “Pyrrolopyrimidine compounds as kinase inhibitors” (Pharmacyclics LLC, priority 2012, dated 2017)

How the values were obtained:
Assay type in all cases: biochemical
Details in all cases: kinase assay by one of methods A, B or C
[1] = target: T1, BTK (Homo sapiens, UniProt Q06187); experiment: Btk in vitro inhibitory activity / inhibition of a panel of kinases (TR-FRET, mobility shift or radiometric filter binding)
T1 construct: purified from insect cells as a full-length construct containing a N-terminal 6×-His tag; His6 (N); made in house; host or cells: insect cells (baculovirus, Sf21)
T1 sequence (Q06187 whole entry): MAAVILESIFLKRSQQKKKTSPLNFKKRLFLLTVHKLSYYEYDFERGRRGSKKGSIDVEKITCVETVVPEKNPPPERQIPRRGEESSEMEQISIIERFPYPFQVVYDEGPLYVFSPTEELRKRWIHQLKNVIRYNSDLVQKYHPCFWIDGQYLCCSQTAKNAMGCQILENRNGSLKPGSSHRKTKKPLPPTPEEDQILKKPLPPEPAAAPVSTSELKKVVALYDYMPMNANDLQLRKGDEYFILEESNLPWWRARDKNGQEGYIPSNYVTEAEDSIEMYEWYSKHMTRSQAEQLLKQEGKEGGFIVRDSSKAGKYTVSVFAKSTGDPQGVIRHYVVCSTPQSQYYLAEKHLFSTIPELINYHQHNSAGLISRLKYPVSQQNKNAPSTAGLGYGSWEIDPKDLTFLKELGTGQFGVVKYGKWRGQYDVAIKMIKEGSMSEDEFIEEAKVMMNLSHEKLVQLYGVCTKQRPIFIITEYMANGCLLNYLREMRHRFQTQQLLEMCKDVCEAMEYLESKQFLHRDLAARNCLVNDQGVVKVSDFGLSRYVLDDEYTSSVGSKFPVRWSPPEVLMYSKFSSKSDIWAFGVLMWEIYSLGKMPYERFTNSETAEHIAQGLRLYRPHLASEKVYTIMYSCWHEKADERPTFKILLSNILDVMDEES
Description: (§1) Btk kinase activity is determined using a time-resolved fluorescence resonance energy transfer (TR-FRET) methodology. Measurements are performed in a reaction volume of 50 μL using 96-well assay plates. Kinase enzyme, inhibitor, ATP (at the Km for the kinase), and 1 μM peptide substrate (Biotin-AVLESEEELYSSARQ-NH2) are incubated in a reaction buffer composed of 20 mM Tris, 50 mM NaCl, MgCl2 (5-25 mM depending on the kinase), MnCl2 (0-10 mM), 1 mM DTT, 0.1 mM EDTA, 0.01% bovine serum albumin, 0.005% Tween-20, and 10% DMSO at pH 7.4 for one hour. The reaction is quenched by the addition of 1.2 equivalents of EDTA (relative to divalent cation) in 25 μL of 1× Lance buffer (Perkin-Elmer). Streptavidin-APC (Perkin-Elmer) and Eu-labeled p-Tyr100 antibody (Perkin-Elmer) in 1× Lance buffer are added in a 25 μL volume to give final concentrations of 100 nM and 2.5 nM, respectively, and the mixture is allowed to incubate for one hour. The TR-FRET signal is measured on a multimode plate reader with an excitation wavelength (λEx) of 330 nm and detection wavelengths (λEm) of 615 and 665 nm. Activity is determined by the ratio of the fluorescence at 665 nm to that at 615 nm. For each compound, enzyme activity is measured at various concentrations of compound. Negative control reactions are performed in the absence of inhibitor in replicates of six, and two no-enzyme controls are used to determine baseline fluorescence levels. Inhibition constants, Ki(app), ware obtained using the program BatchKi (Kuzmic et al. (2000), Anal. Biochem. 286:45-50). IC50s are obtained according to the equation: IC50={Ki(app)/(1+[ATP]/Km^ATP)}+[E]total/2;
(§2) For all kinases, [ATP]=Km^ATP, [Btk]total=0.5 nM and [Lck]total=6 nM.
(§3) Kinase activity is measured in vitro using electrophoretic mobility shift assay. The kinase reactions are assembled in a total volume of 25 μL in 384 well plates. The reactions comprise: BTK enzyme (1 nM, N-terminal His6-tagged, recombinant, full-length, human BTK purified from baculovirus Sf21 insect cell system), inhibitor, ATP ([…] the apparent Km for the kinase), fluorescently labeled peptide substrate (1 μM, FAM-GEEPLYWSFPAKKK-NH2) in a reaction buffer composed of 100 mM HEPES, pH7.5, 5 mM MgCl2 1 mM DTT, 0.1% bovine serum albumin, 0.01% Triton X-100, and 1% DMSO. The reaction is incubated for one hour and is quenched by the addition of 45 μL of termination buffer (100 mM HEPES, pH7.5, 0.01% Triton X-100, 30 mM EDTA). The terminated reactions are analyzed using 12 channel LabChip® 3000 microfluidic detection instrument (Caliper Life Sciences). The enzymatic phosphorylation of the peptide results in a change in net charge, enabling electrophoretic separation of product from substrate peptide. As substrate and product peptides are separated, two peaks of fluorescence are observed. Change in the relative fluorescence intensity of the substrate and product peaks is the parameter measured, reflecting enzyme activity. In the presence of an inhibitor, the ratio between product and substrate is altered: the signal of the product decreases, while the signal of the substrate increases.
(§4) Activity in each sample is determined as the product to sum ratio (PSR):P/(S+P), where P is the peak height of the product peptide and S is the peak height of the substrate peptide. For each compound, enzyme activity is measured at various concentrations (12 concentrations of compound spaced by 3× dilution intervals). Negative control samples (0%-inhibition in the absence of inhibitor) and positive control samples (100%-inhibition, in the presence of 20 mM EDTA) are assembled in replicates of four and are used to calculate %-inhibition values for each inhibitor at each concentration. Percent inhibition (Pinh) is determined using following equation: […]

[2] = target: EGFR (Homo sapiens, UniProt P00533); experiment: Inhibition of a panel of kinases: EGFR
Chain of EGFR (P00533 25-1210, species assumed): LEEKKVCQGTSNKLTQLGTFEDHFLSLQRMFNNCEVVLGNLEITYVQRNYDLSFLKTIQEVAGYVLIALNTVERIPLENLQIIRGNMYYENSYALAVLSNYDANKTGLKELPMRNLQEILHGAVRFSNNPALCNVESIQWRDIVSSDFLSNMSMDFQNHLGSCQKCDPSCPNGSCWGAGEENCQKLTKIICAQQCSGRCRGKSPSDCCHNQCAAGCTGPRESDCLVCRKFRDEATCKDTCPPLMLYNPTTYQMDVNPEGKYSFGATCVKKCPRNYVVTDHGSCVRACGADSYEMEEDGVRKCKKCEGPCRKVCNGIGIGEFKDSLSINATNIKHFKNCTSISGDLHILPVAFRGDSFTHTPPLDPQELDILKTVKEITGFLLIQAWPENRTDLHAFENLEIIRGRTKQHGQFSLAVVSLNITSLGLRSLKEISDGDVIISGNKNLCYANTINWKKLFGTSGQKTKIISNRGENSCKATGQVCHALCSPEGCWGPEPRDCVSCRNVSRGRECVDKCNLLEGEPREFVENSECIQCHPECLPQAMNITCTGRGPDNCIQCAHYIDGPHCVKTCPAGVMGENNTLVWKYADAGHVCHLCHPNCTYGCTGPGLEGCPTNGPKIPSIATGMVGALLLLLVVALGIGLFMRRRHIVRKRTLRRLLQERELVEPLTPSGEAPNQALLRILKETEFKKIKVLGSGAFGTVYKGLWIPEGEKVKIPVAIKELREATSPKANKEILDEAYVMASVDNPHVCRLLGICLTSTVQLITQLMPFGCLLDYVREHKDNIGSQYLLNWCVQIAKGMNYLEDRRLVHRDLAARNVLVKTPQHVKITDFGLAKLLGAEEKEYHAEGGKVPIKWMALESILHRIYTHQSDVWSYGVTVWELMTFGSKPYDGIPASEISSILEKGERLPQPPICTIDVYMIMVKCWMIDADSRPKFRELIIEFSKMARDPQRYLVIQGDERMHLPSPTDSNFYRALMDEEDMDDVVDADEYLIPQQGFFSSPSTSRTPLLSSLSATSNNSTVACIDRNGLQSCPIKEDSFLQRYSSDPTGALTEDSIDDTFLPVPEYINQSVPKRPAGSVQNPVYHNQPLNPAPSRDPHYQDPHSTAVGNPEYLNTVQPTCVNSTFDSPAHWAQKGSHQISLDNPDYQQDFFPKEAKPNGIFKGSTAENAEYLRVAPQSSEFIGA
Description: as §1, §2, §3, §4

[3] = target: LCK (Homo sapiens, UniProt P06239); experiment: Inhibition of a panel of kinases: LCK
Chain of LCK (P06239 whole entry, species assumed): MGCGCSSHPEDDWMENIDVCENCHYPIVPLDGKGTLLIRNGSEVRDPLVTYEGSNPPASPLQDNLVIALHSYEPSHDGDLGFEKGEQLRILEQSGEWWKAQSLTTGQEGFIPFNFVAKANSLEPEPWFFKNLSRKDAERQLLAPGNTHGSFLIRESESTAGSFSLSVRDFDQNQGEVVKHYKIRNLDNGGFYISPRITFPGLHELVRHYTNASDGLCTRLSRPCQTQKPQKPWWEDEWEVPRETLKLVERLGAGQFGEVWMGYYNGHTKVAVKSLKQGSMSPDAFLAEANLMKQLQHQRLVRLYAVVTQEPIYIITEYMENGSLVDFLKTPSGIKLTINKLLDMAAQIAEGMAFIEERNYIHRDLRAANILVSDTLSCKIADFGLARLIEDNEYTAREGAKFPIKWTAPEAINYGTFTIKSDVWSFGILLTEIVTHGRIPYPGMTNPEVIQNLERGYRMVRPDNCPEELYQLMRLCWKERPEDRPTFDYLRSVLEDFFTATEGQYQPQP
Description: as §1, §2, §3, §4

IC50 [1] [nM]	IC50 [2] [nM]	IC50 [3] [nM]	Compound
< 100	1000 to 10000	< 100	CN(C)C/C=C/C(=O)N1CC[C@@H](n2c(F)c(-c3ccc(Oc4ccccc4)cc3)c3c(N)ncnc32)C1 [Compound 13, (R,E)-1-(3-(4-amino-6-fluoro-5-(4-phenoxyphenyl)-7H-pyrrolo[2,3-d]pyrimidin-7-yl)pyrrolidin-1-yl)-4-(dimethylamino)but-2-en-1-one]
< 100	1000 to 10000	< 100	Cc1c(-c2ccc(Oc3ccccc3)cc2)c2c(N)ncnc2n1[C@@H]1CCN(C(=O)/C=C/CN(C)C2CC2)C1 [Compound 12, (R,E)-1-(3-(4-amino-6-methyl-5-(4-phenoxyphenyl)-7H-pyrrolo[2,3-d]pyrimidin-7-yl)pyrrolidin-1-yl)-4-(cyclopropyl(methyl)amino)but-2-en-1-one]
< 100	100 to 1000	100 to 1000	CN(C)C/C=C/C(=O)N1CC[C@@H](n2c(Cl)c(-c3ccc(Cl)cc3)c3c(N)ncnc32)C1 [Compound 40, (R,E)-1-(3-(4-amino-6-chloro-5-(4-chlorophenyl)-7H-pyrrolo[2,3-d]pyrimidin-7-yl)pyrrolidin-1-yl)-4-(dimethylamino)but-2-en-1-one]
< 100	1000 to 10000	< 100	CN(C/C=C/C(=O)N1CC[C@@H](n2c(F)c(-c3ccc(Oc4ccccc4)cc3)c3c(N)ncnc32)C1)C1CC1 [Compound 5, (R,E)-1-(3-(4-amino-6-fluoro-5-(4-phenoxyphenyl)-7H-pyrrolo[2,3-d]pyrimidin-7-yl)pyrrolidin-1-yl)-4-(cyclopropyl(methyl)amino)but-2-en-1-one]
< 100	1000 to 10000	< 100	Cc1c(-c2ccc(Oc3ccccc3)cc2)c2c(N)ncnc2n1[C@@H]1CCN(C(=O)/C=C/CN(C)C)C1 [Compound 15, (R,E)-1-(3-(4-amino-6-methyl-5-(4-phenoxyphenyl)-7H-pyrrolo[2,3-d]pyrimidin-7-yl)pyrrolidin-1-yl)-4-(dimethylamino)but-2-en-1-one]
< 100		1000 to 10000	CN(C/C=C/C(=O)N1CC[C@@H](n2c(Cl)c(-c3ccc(Cl)cc3)c3c(N)ncnc32)C1)C1CC1 [Compound 38, (R,E)-1-(3-(4-amino-6-chloro-5-(4-chlorophenyl)-7H-pyrrolo[2,3-d]pyrimidin-7-yl)pyrrolidin-1-yl)-4-(cyclopropyl(methyl)amino)but-2-en-1-one]
< 100	1000 to 10000	1000 to 10000	COc1cc(-c2c(Cl)n(-c3cccc(N(C)C(=O)/C=C/CN(C)C4CC4)c3)c3ncnc(N)c23)ccc1C [Compound 36, (E)-N-(3-(4-amino-6-chloro-5-(3-methoxy-4-methylphenyl)-7H-pyrrolo[2,3-d]pyrimidin-7-yl)phenyl)-4-(cyclopropyl(methyl)amino)-N-methylbut-2-enamide]
< 100	1000 to 10000	< 100	CN(C/C=C/C(=O)N1CC[C@@H](n2c(Cl)c(-c3ccc(Oc4ccccc4)cc3)c3c(N)ncnc32)C1)C1CC1 [Compound 8, (R,E)-1-(3-(4-amino-6-chloro-5-(4-phenoxyphenyl)-7H-pyrrolo[2,3-d]pyrimidin-7-yl)pyrrolidin-1-yl)-4-(cyclopropyl(methyl)amino)but-2-en-1-one]
< 100	1000 to 10000	< 100	CN(C)C/C=C/C(=O)N1CC[C@@H](n2c(Cl)c(-c3ccc(Oc4ccccc4)cc3)c3c(N)ncnc32)C1 [Compound 14, (R,E)-1-(3-(4-amino-6-chloro-5-(4-phenoxyphenyl)-7H-pyrrolo[2,3-d]pyrimidin-7-yl)pyrrolidin-1-yl)-4-(dimethylamino)but-2-en-1-one]
< 100	< 100	100 to 1000	C=CC(=O)N1CC[C@@H](n2c(F)c(-c3ccc(Cl)cc3)c3c(N)ncnc32)C1 [Compound 42, (R)-1-(3-(4-amino-5-(4-chlorophenyl)-6-fluoro-7H-pyrrolo[2,3-d]pyrimidin-7-yl)pyrrolidin-1-yl)prop-2-en-1-one]
< 100	< 100	100 to 1000	C=CC(=O)N1CC[C@@H](n2c(C)c(-c3ccc(Cl)cc3)c3c(N)ncnc32)C1 [Compound 44, (R)-1-(3-(4-amino-5-(4-chlorophenyl)-6-methyl-7H-pyrrolo[2,3-d]pyrimidin-7-yl)pyrrolidin-1-yl)prop-2-en-1-one]
< 100	1000 to 10000	1000 to 10000	CN(C(=O)/C=C/CN(C)C1CC1)c1cccc(-n2c(Cl)c(-c3ccc(Cl)cc3)c3c(N)ncnc32)c1 [Compound 23, (E)-N-(3-(4-amino-6-chloro-5-(4-chlorophenyl)-7H-pyrrolo[2,3-d]pyrimidin-7-yl)phenyl)-4-(cyclopropyl(methyl)amino)-N-methylbut-2-enamide]
< 100	< 100	100 to 1000	C=CC(=O)N1CC[C@@H](n2c(Cl)c(-c3ccc(Cl)cc3)c3c(N)ncnc32)C1 [Compound 39, (R)-1-(3-(4-amino-6-chloro-5-(4-chlorophenyl)-7H-pyrrolo[2,3-d]pyrimidin-7-yl)pyrrolidin-1-yl)prop-2-en-1-one]
< 100			COCCN(C)C/C=C/C(=O)N1CC[C@@H](n2c(F)c(-c3ccc(Oc4ccccc4)cc3)c3c(N)ncnc32)C1 [Compound 49, (R,E)-1-(3-(4-amino-6-fluoro-5-(4-phenoxyphenyl)-7H-pyrrolo[2,3-d]pyrimidin-7-yl)pyrrolidin-1-yl)-4-((2-methoxyethyl)(methyl)amino)but-2-en-1-one]
< 100			CN(C/C=C/C(=O)N1CC[C@@H](n2c(Cl)c(-c3ccc(Oc4cccc(F)c4)cc3)c3c(N)ncnc32)C1)C1CC1 [Compound 60, (R,E)-1-(3-(4-amino-6-chloro-5-(4-(3-fluorophenoxy)phenyl)-7H-pyrrolo[2,3-d]pyrimidin-7-yl)pyrrolidin-1-yl)-4-(cyclopropyl(methyl)amino)but-2-en-1-one]
< 100	< 100	100 to 1000	C=CC(=O)N1CC[C@@H](n2c(OC)c(-c3ccc(Cl)cc3)c3c(N)ncnc32)C1 [Compound 46, (R)-1-(3-(4-amino-5-(4-chlorophenyl)-6-methoxy-7H-pyrrolo[2,3-d]pyrimidin-7-yl)pyrrolidin-1-yl)prop-2-en-1-one]
